# Data taken from patent US8217035B2, “Pyrimidine derivatives used as PI-3-kinase inhibitors” (Novartis AG, priority 2006, dated 2012).
# Where two headings read alike, the source gives them in different places.
# How the values were obtained:
# [1] = test system: pSer473 Akt in A2780 cells; test: pSer473 Akt assay to monitor PI3K pathway in A2780 cells (Biological Method 2, MSD); format: cell-based; conditions: Homo sapiens, inhibition of Akt phosphorylation
# Experimental: In this method, an assay for measuring the PI3K-mediated pSer473-Akt status after treatment with representative inhibitor compounds of the invention is described.
# A2780 cells were cultured in DMEM supplemented with 10% FBS. L-glutamine, sodium pyruvate, and antibiotics. Cells were plated in the same medium at a density of 15,000 cells per well into 96 well tissue culture plates, with outside wells vacant, and allowed to adhere overnight.
# Test compounds supplied in DMSO were diluted further into DMSO at 500 times the desired final concentrations before dilution into culture media to 2 times the final concentrations. Equal volumes of 2× compounds were added to the cells in 96 well plates and incubated at 37° C. for one hour. The media and compounds were then removed, the plates chilled and cells lysed in a lysis buffer (150 mM NaCl, 20 mM Tris pH 7.5, 1 mM EDTA, 1 mM EGTA, 1% Triton X-100) supplemented with phosphatase and protease inhibitors. After thorough mixing, lysates were transferred to both pSer473Akt and total Akt assay plates from Meso Scale Discovery (MSD), and incubated overnight with shaking at 4° C.
# The assays were read on a SECTOR Imager 6000 instrument (Meso Scale Discovery). Ratios of the signal from pSer473Akt and total Akt assays were used to correct for any variability and the percent inhibition of pSer473Akt from the total signal seen in cells treated with compound versus DMSO alone was calculated and used to determine EC50 values for each compound.
# PI3 kinase alpha = PI3 kinase alpha (Homo sapiens, UniProt P42336); test: PI3K ATP depletion assay (Biological Method 1, Assay 3; KinaseGlo luminescence); format: biochemical; conditions: ATP depletion assay, read-out: PI3 Kinase Alpha, IC50
# How it was run: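 Compound in DMSO was mixed with 10 nM PI3 kinase and 5 μg/mL phosphatidylinositol, and the reaction was started with 2 μM ATP. It ran to about 50% ATP depletion and was stopped with KinaseGlo.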
# [2] = test system: A2780 ovarian cancer cells; test: Cellular proliferation in A2780 cells, Cell Titer Glo (Biological Method 4); format: cell-based; conditions: Homo sapiens
# How it was run: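 A2780 cells seeded at 1,000/well in DMEM with 10% FBS, at least 2 h before compound, then exposed 72 h at 37 °C, 5% CO2. Viable cells measured by Cell Titer Glo luminescence; EC50 calculated from duplicate conditions.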
# [3] = ovarian cancer cell line A2780, Biological Method 4
# Sequence of PI3 kinase alpha (P42336 whole entry): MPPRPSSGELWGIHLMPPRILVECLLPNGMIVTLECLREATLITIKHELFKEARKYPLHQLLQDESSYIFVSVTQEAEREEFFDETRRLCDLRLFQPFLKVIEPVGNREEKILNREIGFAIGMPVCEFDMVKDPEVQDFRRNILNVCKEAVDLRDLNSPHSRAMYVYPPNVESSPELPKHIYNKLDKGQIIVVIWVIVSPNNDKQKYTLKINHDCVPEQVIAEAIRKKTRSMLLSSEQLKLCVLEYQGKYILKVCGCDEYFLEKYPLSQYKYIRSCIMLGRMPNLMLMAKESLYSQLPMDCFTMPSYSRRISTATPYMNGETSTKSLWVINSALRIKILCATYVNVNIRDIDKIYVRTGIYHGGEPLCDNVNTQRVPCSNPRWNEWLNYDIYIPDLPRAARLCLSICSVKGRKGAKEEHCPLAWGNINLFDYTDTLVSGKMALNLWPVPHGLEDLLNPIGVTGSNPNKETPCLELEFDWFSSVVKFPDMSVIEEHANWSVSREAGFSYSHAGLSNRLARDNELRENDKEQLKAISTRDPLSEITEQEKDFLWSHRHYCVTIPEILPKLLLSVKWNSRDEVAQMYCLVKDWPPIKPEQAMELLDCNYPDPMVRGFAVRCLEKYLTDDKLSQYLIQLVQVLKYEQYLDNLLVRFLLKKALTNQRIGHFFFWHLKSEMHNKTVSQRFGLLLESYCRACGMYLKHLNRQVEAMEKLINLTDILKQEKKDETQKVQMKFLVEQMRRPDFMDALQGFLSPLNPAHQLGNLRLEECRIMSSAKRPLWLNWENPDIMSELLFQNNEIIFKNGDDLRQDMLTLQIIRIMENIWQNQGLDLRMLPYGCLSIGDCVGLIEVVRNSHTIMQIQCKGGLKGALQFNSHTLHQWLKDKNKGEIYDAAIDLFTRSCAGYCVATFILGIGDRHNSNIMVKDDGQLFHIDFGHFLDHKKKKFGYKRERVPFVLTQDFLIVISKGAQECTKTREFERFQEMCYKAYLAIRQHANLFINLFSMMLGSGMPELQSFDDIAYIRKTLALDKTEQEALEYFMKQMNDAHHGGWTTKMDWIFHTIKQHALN
# Sequence of PI3 kinase alpha (P27986 whole entry partner): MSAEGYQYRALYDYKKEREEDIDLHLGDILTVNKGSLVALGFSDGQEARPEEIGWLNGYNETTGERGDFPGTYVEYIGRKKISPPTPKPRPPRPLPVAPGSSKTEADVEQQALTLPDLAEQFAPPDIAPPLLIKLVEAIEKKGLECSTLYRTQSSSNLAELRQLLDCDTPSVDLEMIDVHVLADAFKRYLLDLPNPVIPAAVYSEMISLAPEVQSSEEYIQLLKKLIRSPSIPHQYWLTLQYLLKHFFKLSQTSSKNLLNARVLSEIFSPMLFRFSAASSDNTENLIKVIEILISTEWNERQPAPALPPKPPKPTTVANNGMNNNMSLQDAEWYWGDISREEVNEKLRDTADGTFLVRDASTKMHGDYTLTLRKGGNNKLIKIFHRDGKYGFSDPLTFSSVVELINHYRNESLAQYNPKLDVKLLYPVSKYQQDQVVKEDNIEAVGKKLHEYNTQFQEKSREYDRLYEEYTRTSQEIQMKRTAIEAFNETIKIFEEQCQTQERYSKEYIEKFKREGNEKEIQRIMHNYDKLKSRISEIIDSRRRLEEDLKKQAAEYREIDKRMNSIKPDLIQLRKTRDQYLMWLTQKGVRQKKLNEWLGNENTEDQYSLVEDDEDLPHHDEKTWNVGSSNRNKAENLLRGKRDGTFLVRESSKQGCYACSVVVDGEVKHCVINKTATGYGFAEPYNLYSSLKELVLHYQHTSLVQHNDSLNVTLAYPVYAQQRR
SMILES,EC50 ([1]; A2780 cells) [nM],IC50 (PI3 kinase alpha) [nM],EC50 ([2]; ovarian cancer cell line A2780) [nM],"EC50 ([1]; A2780, Biological Method 2) [nM]",IC50 (PI3 kinase alpha; Biological Method 1) [nM],"EC50 [2, 3] [nM]"
CS(=O)(=O)c1ccc(Nc2cc(-c3cnc(N)cc3C(F)(F)F)nc(N3CCOCC3)n2)cc1 [Compound 173],< 1000,< 1000,< 10000,,,
COc1cccc2ncc(Nc3cc(-c4cnc(N)nc4)nc(N4CCOCC4)n3)cc12 [Compound 7],< 1000,< 1000,< 1000,,,
CS(=O)(=O)c1cccc(-c2cc(-c3cnc(N)cc3C#N)nc(N3CCOCC3)n2)c1 [Compound 92],< 1000,< 1000,< 1000,,,
Nc1ccc(-c2cc(Nc3cnc4ccccc4c3)nc(N3CCOCC3)n2)c(F)n1 [Compound 169],< 1000,< 1000,< 1000,,,
CS(=O)(=O)Nc1nc2ccccc2cc1-c1cc(-c2ccc(N)nc2)nc(N2CCOCC2)n1 [Compound 157],< 1000,< 1000,< 25000,,,
Nc1ncc(-c2cc(NC(=O)c3cccnc3)nc(N3CCOCC3)n2)cn1 [Compound 189],< 1000,< 1000,< 10000,,,
CCN(CC)Cc1cnc(Nc2cc(-c3cnc(N)cc3C(F)(F)F)nc(N3CCOCC3)n2)s1 [Compound 12],< 1000,< 1000,< 10000,,,
CC(C)Oc1ncccc1Nc1cc(-c2cnc(N)cc2C(F)(F)F)nc(N2CCOCC2)n1 [Compound 204],,,,< 1000,< 1000,< 25000
Nc1ncc(-c2cc(Nc3ccncc3)nc(N3CCOCC3)n2)cn1 [Compound 44],< 1000,< 1000,< 1000,,,
Nc1ncc(-c2cc(OC3CCN(C(=O)OCc4ccccc4)CC3)nc(N3CCOCC3)n2)c(C(F)(F)F)n1 [Compound 176],< 1000,< 1000,< 10000,,,
Nc1ccc(-c2cc(Nc3cnc4ccccc4c3)nc(N3CCOCC3)n2)c(Cl)n1 [Compound 195],< 1000,< 1000,< 1000,,,
CS(=O)(=O)N1CCC[C@@H](Oc2cc(-c3cnc(N)nc3N)nc(N3CCOCC3)n2)C1 [Compound 127],< 1000,< 1000,< 10000,,,
Nc1ccc(-c2cc(Nc3ccncc3C(F)(F)F)nc(N3CCOCC3)n2)cn1 [Compound 142],< 1000,< 1000,< 1000,,,
N#Cc1cc(N)ncc1-c1cc(OC2CCOCC2)nc(N2CCOCC2)n1 [Compound 118],< 1000,< 1000,< 1000,,,
CS(=O)(=O)c1cccc(-c2cc(-c3cnc(N)[nH]c3=O)nc(N3CCOCC3)n2)c1 [Compound 105],< 1000,< 1000,< 1000,,,
CC(C)(C)OC(=O)N1CCC(Oc2cc(-c3cnc(N)nc3C(F)(F)F)nc(N3CCOCC3)n2)CC1 [Compound 27],< 1000,< 1000,< 1000,,,
COc1cccc2ncc(Nc3cc(-c4ccc(N)nc4)nc(N4CCOCC4)n3)cc12 [Compound 156],< 1000,< 1000,< 1000,,,
COc1cncc(-c2cc(-c3cnc(N)nc3)nc(N3CCOCC3)n2)c1 [Compound 57],< 1000,< 1000,< 1000,,,
COc1cc(N)ncc1-c1cc(Nc2cnc3ccccc3c2)nc(N2CCOCC2)n1 [Compound 200],,,,< 1000,< 1000,< 1000
CC(=O)N1CCC[C@@H](Oc2cc(-c3cnc(N)nc3N)nc(N3CCOCC3)n2)C1 [Compound 29],< 1000,< 1000,< 1000,,,
COc1ccc2ncc(Nc3cc(-c4ccc(N)nc4)nc(N4CCOCC4)n3)cc2c1 [Compound 211],,,,< 10000,< 1000,< 1000
Nc1ncc(-c2cc(Nc3ccc4c(c3)OCCO4)nc(N3CCOCC3)n2)cn1 [Compound 67],< 1000,< 1000,< 1000,,,
CS(=O)(=O)Nc1ncccc1-c1cc(-c2ccc(N)nc2)nc(N2CCOCC2)n1 [Compound 3],< 1000,< 1000,< 1000,,,
CCOc1cc(Nc2cc(-c3cnc(N)cc3C(F)(F)F)nc(N3CCOCC3)n2)ccn1 [Compound 178],< 1000,< 1000,< 10000,,,
Cc1c(-c2ccc(Nc3ncc(-c4ccccc4)s3)nc2)nc(N2CCOCC2)nc1-c1cnc(N)nc1 [Compound 194],< 1000,< 1000,< 10000,,,
Nc1ncc(-c2cc(O[C@H]3CCOC3)nc(N3CCOCC3)n2)c(N)n1 [Compound 101],< 1000,< 1000,< 10000,,,
COc1ccc2ncc(Nc3cc(-c4cnc(N)nc4)nc(N4CCOCC4)n3)cc2c1 [Compound 206],,,,< 1000,< 1000,< 1000

# Results, then the molecule that gave them:
EC50 ([1]; A2780 cells) [nM],IC50 (PI3 kinase alpha) [nM],EC50 ([2]; ovarian cancer cell line A2780) [nM],"EC50 ([1]; A2780, Biological Method 2) [nM]",IC50 (PI3 kinase alpha; Biological Method 1) [nM],"EC50 [2, 3] [nM]",SMILES
< 1000,< 1000,< 1000,,,,CS(=O)(=O)Nc1ncccc1-c1cc(-c2cnc(N)nc2C(F)(F)F)nc(N2CCOCC2)n1 [Compound 69]
,,,< 10000,< 1000,< 25000,CS(=O)(=O)c1ccc(Nc2cc(-c3cnc(N)nc3N)nc(N3CCOCC3)n2)cn1 [Compound 214]
,,,< 10000,< 1000,< 10000,Nc1cc(C(F)(F)F)c(-c2cc(N3CCOc4ccccc43)nc(N3CCOCC3)n2)cn1 [Compound 210]
< 1000,< 1000,< 10000,,,,CS(=O)(=O)c1ccccc1Nc1cc(-c2ccc(N)nc2)nc(N2CCOCC2)n1 [Compound 141]
< 1000,< 1000,< 1000,,,,Nc1ncc(-c2cc(Nc3ccncc3)nc(N3CCOCC3)n2)c(C(F)(F)F)n1 [Compound 33]
< 1000,< 1000,< 1000,,,,CN1CCC(Oc2ccc(Nc3cc(-c4cnc(N)nc4C(F)(F)F)nc(N4CCOCC4)n3)cn2)CC1 [Compound 62]
< 1000,< 1000,< 10000,,,,CS(=O)(=O)N1CCC(Oc2cc(-c3cnc(N)nc3N)nc(N3CCOCC3)n2)CC1 [Compound 120]
< 1000,< 1000,< 10000,,,,CS(=O)(=O)c1ccc2cc(Nc3cc(-c4ccc(N)nc4)nc(N4CCOCC4)n3)cnc2c1 [Compound 149]
< 1000,< 1000,< 1000,,,,Nc1cc(C(F)(F)F)c(-c2cc(OC3CCOCC3)nc(N3CCOCC3)n2)cn1 [Compound 24]
< 1000,< 1000,< 10000,,,,CS(=O)(=O)c1ccc(Nc2cc(-c3ccc(N)nc3)nc(N3CCOCC3)n2)cc1 [Compound 112]
< 1000,< 1000,< 1000,,,,Nc1ccc(-c2cc(Nc3ccncc3)nc(N3CCOCC3)n2)cn1 [Compound 184]
< 1000,< 1000,< 1000,,,,Nc1cc(C(F)(F)F)c(-c2cc(Nc3ccc(OC4CCNCC4)nc3)nc(N3CCOCC3)n2)cn1 [Compound 150]
< 1000,< 1000,< 1000,,,,CS(=O)(=O)N1CCC(Oc2cc(-c3cnc(N)[nH]c3=O)nc(N3CCOCC3)n2)CC1 [Compound 58]
,,,< 10000,< 1000,< 10000,N#Cc1cc(-c2cnc(N)cc2C(F)(F)F)nc(N2CCOCC2)n1 [Compound 209]
< 1000,< 1000,< 1000,,,,Nc1ncc(-c2cc(Nc3ccc4ncccc4c3)nc(N3CCOCC3)n2)cn1 [Compound 46]
< 1000,< 1000,< 10000,,,,Nc1ncc(-c2cc(Nc3ccccc3F)nc(N3CCOCC3)n2)cn1 [Compound 87]
< 1000,< 1000,< 1000,,,,CC(C)N1CCC(Oc2ccc(Nc3cc(-c4cnc(N)cc4C(F)(F)F)nc(N4CCOCC4)n3)cn2)CC1 [Compound 11]
< 1000,< 1000,< 10000,,,,CN1CCC(Oc2ccc(Nc3cc(-c4cnc(N)cc4C(F)(F)F)nc(N4CCOCC4)n3)cn2)CC1 [Compound 116]
< 1000,< 1000,< 1000,,,,Nc1ccc(-c2cc(Nc3ccncc3F)nc(N3CCOCC3)n2)cn1 [Compound 196]
,,,< 1000,< 1000,< 10000,CC(=O)Nc1cc(-c2cnc(N)nc2)nc(N2CCOCC2)n1 [Compound 205]
< 1000,< 1000,< 1000,,,,CC(C)N1CCC(Oc2ccc(Nc3cc(-c4cnc(N)nc4N)nc(N4CCOCC4)n3)cn2)CC1 [Compound 68]
< 1000,< 1000,< 1000,,,,CC(=O)N1CCC(Oc2cc(-c3cnc(N)nc3N)nc(N3CCOCC3)n2)CC1 [Compound 99]
